Test: Antagonist activity at CCR2 in human PBMC assessed as inhibition of MCP1-induced chemotaxis after 30 mins

Compared with `O=C(CNC(=O)c1cccc(C(F)(F)F)c1)N[C@@H]1CCN([C@H]2CC[C@@](O)(c3cncnc3)CC2)C1`, `O=C(CNC(=O)c1cccc(C(F)(F)F)c1)N[C@@H]1CCN([C@H]2CC[C@@](O)(c3cccnc3)CC2)C1` is 5.1-fold lower in IC50: 20 nM for the first, 3.9 nM for the second. The second is the more potent here.

First: O=C(CNC(=O)c1cccc(C(F)(F)F)c1)N[C@@H]1CCN([C@H]2CC[C@@](O)(c3ccncc3)CC2)C1
Second: O=C(CNC(=O)c1cccc(C(F)(F)F)c1)N[C@@H]1CCN([C@H]2CC[C@@](O)(c3ccnnc3)CC2)C1
The IC50 of the first is 2.4-fold lower: 3 nM for the first, 7.2 nM for the second.

First: O=C(CNC(=O)c1cccc(C(F)(F)F)c1)N[C@@H]1CCN([C@H]2CC[C@@](O)(c3ncccn3)CC2)C1
Second: O=C(CNC(=O)c1cccc(C(F)(F)F)c1)N[C@@H]1CCN([C@H]2CC[C@@](O)(c3cccnn3)CC2)C1
The IC50 of the first is 1.6-fold higher: 9.3 nM for the first, 5.8 nM for the second. The second is the more potent here.

First: CCOc1ccc([C@]2(O)CC[C@H](N3CC[C@@H](NC(=O)CNC(=O)c4cccc(C(F)(F)F)c4)C3)CC2)cn1
Second: Cc1ccc([C@]2(O)CC[C@H](N3CC[C@@H](NC(=O)CNC(=O)c4cccc(C(F)(F)F)c4)C3)CC2)cn1
The IC50 of the first is 2.1-fold lower: 2.7 nM for the first, 5.6 nM for the second. The first is the more potent here.

Test: Antagonist activity at mouse CCR2 assessed as inhibition of MCP1-induced chemotaxis after 30 mins

`Cc1ccc([C@]2(O)CC[C@H](N3CC[C@@H](NC(=O)CNC(=O)c4cccc(C(F)(F)F)c4)C3)CC2)cc1` showed an IC50 of 156 nM.

From BindingDB's records for doi:10.1021/ml200030q (2011)
